Measurements as given in ChEMBL document CHEMBL1201862, “PubChem BioAssay data set” (2004).
“And” between values parts separate entries of the source, which are not always exact repeats. Identical values can stand only once.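 All cell lines were grown in 96-well plates and treated with compound for 48 hours. Here, GI50 denotes the concentration required for 50% inhibition of growth.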 The source made the active and inactive calls. No stated cut-off is given here; in the data, active = GI50 up to about 1.1 µM and inactive = higher.

Assays:
Test in all cases: growth of human tumour cells (NCI), 48 h
786-0 = tested on: 786-0
ACHN = tested on: ACHN
HCT-116 = tested on: HCT-116
HOP-62 = tested on: HOP-62
KM12 = tested on: KM12
LOX IMVI = tested on: LOX IMVI
MDA-N = tested on: MDA-N
NCI-H226 = tested on: NCI-H226
NCI-H522 = tested on: NCI-H522
NCI/ADR-RES = tested on: NCI/ADR-RES
OVCAR-5 = tested on: OVCAR-5
RPMI-8226 = tested on: RPMI-8226
SF-268 = tested on: SF-268
SF-539 = tested on: SF-539
SK-MEL-28 = tested on: SK-MEL-28
SK-MEL-5 = tested on: SK-MEL-5
T47D = tested on: T47D
TK-10 = tested on: TK-10
U-251 = tested on: U-251
CCRF-CEM = tested on: CCRF-CEM

Measured: GI50

O=C(/C=C/c1ccc(O)c(O)c1O)OCCc1ccccc1
inactive: 786-0 16 µM | ACHN 39.2 µM | HCT-116 13.5 µM | HOP-62 26.2 µM | KM12 28.9 µM | LOX IMVI 15.2 µM | MDA-N 13 µM | NCI-H226 27.7 µM | NCI-H522 27.9 µM | NCI/ADR-RES 29.8 µM | OVCAR-5 41.9 µM | RPMI-8226 21.2 µM | SF-268 32.1 µM | SF-539 37.3 µM | SK-MEL-28 > 100 µM | SK-MEL-5 > 100 µM | T47D 82.2 µM | TK-10 83.2 µM | U-251 26.1 µM

CC(C)/C(Cl)=N\OC(NC(=O)P(=O)(c1ccccc1)c1ccccc1)(C(F)(F)F)C(F)(F)F
inactive: 786-0 10.3 µM | ACHN 3.62 µM | CCRF-CEM 5.01 µM | HCT-116 9.16 µM | HOP-62 17.3 µM | KM12 7.26 µM | LOX IMVI 11.3 µM | MDA-N 19.5 µM | NCI-H226 10.3 µM | NCI/ADR-RES 12.8 µM | OVCAR-5 24.3 µM | RPMI-8226 10.3 µM | SF-268 12.1 µM | SF-539 13.5 µM | SK-MEL-28 14.9 µM | SK-MEL-5 13.8 µM | T47D 10.9 µM | TK-10 11.7 µM | U-251 2.88 µM

CCCCCCCCCCCCC(=O)NCC(=O)NC(Cc1ccccc1)C(=O)Oc1ccc([N+](=O)[O-])cc1 (centres undefined)
inactive: 786-0 84.3 µM | ACHN > 100 µM | CCRF-CEM 29.4 µM | HCT-116 30.9 µM | HOP-62 > 100 µM | KM12 55.6 µM | LOX IMVI 36.2 µM | MDA-N > 100 µM | NCI-H226 33.5 µM | NCI-H522 29.4 µM | NCI/ADR-RES 57.1 µM | OVCAR-5 > 100 µM | SF-268 31.9 µM | SF-539 91.8 µM | SK-MEL-5 72.4 µM | T47D 92.9 µM | TK-10 > 100 µM

Cc1nc2ccccc2c(=O)n1NC(=S)Nc1ccc(Cl)cc1[N+](=O)[O-]
inactive: 786-0 > 100 µM | ACHN > 100 µM | CCRF-CEM > 100 µM | HCT-116 > 100 µM | HOP-62 > 100 µM | KM12 > 100 µM | MDA-N > 100 µM | NCI-H226 > 10 µM | NCI-H522 > 100 µM | NCI/ADR-RES > 100 µM | RPMI-8226 > 100 µM | SF-268 > 100 µM | SF-539 > 100 µM | SK-MEL-28 > 100 µM | SK-MEL-5 > 100 µM | T47D > 100 µM | TK-10 > 100 µM | U-251 > 100 µM

CC(=O)OCC(OC(C)=O)C(OC(C)=O)C(/C=N\Nc1nc2ccccc2c(=O)[nH]1)OC(C)=O (centres undefined)
inactive: 786-0 > 100 µM | ACHN > 100 µM | CCRF-CEM > 100 µM | HCT-116 > 100 µM | HOP-62 > 100 µM | KM12 > 100 µM | LOX IMVI > 100 µM | MDA-N > 100 µM | NCI-H226 > 100 µM and 89.9 µM | NCI/ADR-RES 24.9 µM and 34.5 µM | OVCAR-5 > 100 µM | RPMI-8226 91.8 µM | SF-268 > 100 µM | SF-539 > 100 µM | SK-MEL-28 > 100 µM | SK-MEL-5 > 100 µM | T47D > 100 µM | TK-10 > 100 µM | U-251 > 100 µM

CNCC(SC)c1ccc(O)c(O)c1 (centres undefined)
inactive: 786-0 18.6 µM | ACHN 17.7 µM | CCRF-CEM 2.67 µM | HCT-116 20.7 µM | HOP-62 36.4 µM | KM12 > 100 µM | LOX IMVI 24.7 µM | MDA-N 18.5 µM | NCI-H226 > 100 µM | NCI-H522 13.7 µM | NCI/ADR-RES 34.9 µM | OVCAR-5 > 100 µM | RPMI-8226 21.1 µM | SF-268 38.1 µM | SK-MEL-28 53.2 µM | SK-MEL-5 52.8 µM | T47D 23.6 µM | TK-10 19.1 µM | U-251 61.1 µM

C=CCN1CCC(OC(=O)C(O)(C#CC)C2CCCC2)CC1 (centres undefined)
inactive: 786-0 > 100 µM | ACHN > 100 µM | HCT-116 > 100 µM | HOP-62 > 100 µM | KM12 > 100 µM | LOX IMVI > 100 µM | MDA-N > 100 µM | NCI-H226 > 100 µM | NCI-H522 > 100 µM | NCI/ADR-RES > 100 µM | OVCAR-5 > 100 µM | RPMI-8226 > 100 µM | SF-268 > 100 µM | SF-539 > 100 µM | SK-MEL-28 > 100 µM | SK-MEL-5 > 100 µM | T47D > 100 µM | TK-10 > 100 µM | U-251 > 100 µM

CCOC(=O)C1(N)CCc2[nH][nH]c(=O)c2C1 (centres undefined)
inactive: 786-0 > 100 µM | ACHN > 100 µM | CCRF-CEM > 100 µM | HCT-116 > 100 µM | HOP-62 > 100 µM | KM12 > 100 µM | LOX IMVI > 100 µM | MDA-N > 100 µM | NCI-H226 > 100 µM | NCI-H522 > 100 µM | NCI/ADR-RES > 100 µM | OVCAR-5 > 100 µM | RPMI-8226 > 100 µM | SF-539 > 100 µM | SK-MEL-28 > 100 µM | SK-MEL-5 > 100 µM | T47D > 100 µM | TK-10 > 100 µM | U-251 > 100 µM
